IC50 and inhibition data for 15 compounds are collected here from ChEMBL document CHEMBL1128999, “Synthesis and evaluation of 2-aryl-4H-3,1-benzoxazin-4-ones as C1r serine protease inhibitors” (Bioorg Med Chem Lett, 1996).

The structures appear in SMILES notation.

Assay [1] concerns the target T1, Complement C1r subcomponent (Homo sapiens, UniProt P00736).
T1 sequence (P00736 whole entry): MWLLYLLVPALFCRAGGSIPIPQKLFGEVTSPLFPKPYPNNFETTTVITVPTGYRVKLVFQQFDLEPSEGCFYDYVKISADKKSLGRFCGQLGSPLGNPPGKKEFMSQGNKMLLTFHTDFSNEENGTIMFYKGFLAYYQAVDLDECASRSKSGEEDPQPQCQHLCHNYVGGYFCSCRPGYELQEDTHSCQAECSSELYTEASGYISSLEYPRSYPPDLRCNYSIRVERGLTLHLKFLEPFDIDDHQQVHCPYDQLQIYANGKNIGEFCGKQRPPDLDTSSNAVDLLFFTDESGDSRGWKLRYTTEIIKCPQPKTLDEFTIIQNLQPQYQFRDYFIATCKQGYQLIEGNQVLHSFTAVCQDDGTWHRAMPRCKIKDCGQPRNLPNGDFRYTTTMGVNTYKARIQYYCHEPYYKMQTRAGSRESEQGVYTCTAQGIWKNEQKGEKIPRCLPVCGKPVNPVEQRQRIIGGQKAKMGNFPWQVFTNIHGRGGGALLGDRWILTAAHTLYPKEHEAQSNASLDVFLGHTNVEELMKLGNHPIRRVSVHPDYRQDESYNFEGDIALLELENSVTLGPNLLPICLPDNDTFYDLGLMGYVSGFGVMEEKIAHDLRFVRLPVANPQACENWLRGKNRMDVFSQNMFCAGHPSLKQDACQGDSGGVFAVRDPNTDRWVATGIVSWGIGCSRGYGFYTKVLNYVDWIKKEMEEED
Nature of the assay: (§1) Inhibitory activity against C1r serine protease.

Assay [2] concerns the target T1, Complement C1r subcomponent. Nature of the assay: Inhibition of C1r serine protease.
Assay [3] shares this target. Described as §1. The source holds these as a separate data set.
In assay [4] the target is T2, Complement C1r subcomponent (Homo sapiens) (UniProt P00736).
T2 sequence (whole entry): T1 sequence (P00736 whole entry)
The settings on record: at 10 µM.

The next assay has as its target Prothrombin (Homo sapiens, UniProt P00734). Nature of the assay: Compound was evaluated for inhibitory activity against Thrombin.
In assay [5] the target is T3, Complement C1s subcomponent (Homo sapiens, UniProt P09871).
T3 sequence (P09871 whole entry): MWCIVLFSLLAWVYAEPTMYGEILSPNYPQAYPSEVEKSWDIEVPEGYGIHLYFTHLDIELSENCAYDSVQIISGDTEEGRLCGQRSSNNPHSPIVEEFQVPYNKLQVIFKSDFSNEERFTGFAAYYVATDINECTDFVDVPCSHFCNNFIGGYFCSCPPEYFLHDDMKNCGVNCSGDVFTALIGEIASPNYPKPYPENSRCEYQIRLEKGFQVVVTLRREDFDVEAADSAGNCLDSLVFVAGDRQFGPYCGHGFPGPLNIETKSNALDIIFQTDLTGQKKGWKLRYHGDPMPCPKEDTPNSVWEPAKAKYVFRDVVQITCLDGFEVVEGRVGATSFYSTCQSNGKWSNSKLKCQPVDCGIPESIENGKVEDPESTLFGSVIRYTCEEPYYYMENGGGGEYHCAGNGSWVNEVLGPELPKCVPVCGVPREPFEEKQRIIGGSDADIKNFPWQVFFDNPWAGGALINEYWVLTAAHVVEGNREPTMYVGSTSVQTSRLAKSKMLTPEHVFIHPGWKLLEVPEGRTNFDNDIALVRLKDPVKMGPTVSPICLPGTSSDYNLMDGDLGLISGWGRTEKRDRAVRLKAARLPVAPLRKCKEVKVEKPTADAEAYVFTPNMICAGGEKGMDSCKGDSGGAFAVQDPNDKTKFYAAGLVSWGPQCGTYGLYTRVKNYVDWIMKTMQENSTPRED
Nature of the assay: Compound was evaluated for inhibitory activity against C1s serine protease.

For assay [6], the target named is T1, Complement C1r subcomponent. Nature of the assay: Compound was evaluated for inhibitory activity against C1r serine protease.
In another assay the target is Kallikrein-1 (Homo sapiens, UniProt P06870). Nature of the assay: Compound was evaluated for inhibitory activity against Kallikrein.
The target of assay [7] is T1, Complement C1r subcomponent. Kind of assay: Compound was evaluated for inhibitory activity against C1r serine protease in assay 2 at t=60 min.
The next assay deals with Plasminogen (Homo sapiens, UniProt P00747). Nature of the assay: Compound was evaluated for inhibitory activity against plasmin.
Assay [8] addresses T1, Complement C1r subcomponent. Nature of the assay: Compound was evaluated for inhibitory activity against C1r serine protease in assay 1.
A further assay deals with Serine protease 1 (Homo sapiens, UniProt P07477). Nature of the assay: Compound was evaluated for inhibitory activity against Trypsin.
Assay [9] has as its target T2, Complement C1r subcomponent (Homo sapiens). Nature of the assay: Compound was evaluated for percentage inhibitory activity against C1r serine protease in assay 1 at a concentration of 10 uM.

Kallikrein-1, sequence (P06870 whole entry): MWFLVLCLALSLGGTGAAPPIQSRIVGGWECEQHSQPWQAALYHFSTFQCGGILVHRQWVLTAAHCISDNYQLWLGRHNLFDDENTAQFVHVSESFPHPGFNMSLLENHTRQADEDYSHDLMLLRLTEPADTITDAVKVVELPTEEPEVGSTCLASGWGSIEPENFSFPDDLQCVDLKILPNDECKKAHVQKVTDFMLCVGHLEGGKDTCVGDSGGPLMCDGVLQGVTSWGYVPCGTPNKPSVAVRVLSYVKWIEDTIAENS
Plasminogen, sequence (P00747 97-580 limits assumed): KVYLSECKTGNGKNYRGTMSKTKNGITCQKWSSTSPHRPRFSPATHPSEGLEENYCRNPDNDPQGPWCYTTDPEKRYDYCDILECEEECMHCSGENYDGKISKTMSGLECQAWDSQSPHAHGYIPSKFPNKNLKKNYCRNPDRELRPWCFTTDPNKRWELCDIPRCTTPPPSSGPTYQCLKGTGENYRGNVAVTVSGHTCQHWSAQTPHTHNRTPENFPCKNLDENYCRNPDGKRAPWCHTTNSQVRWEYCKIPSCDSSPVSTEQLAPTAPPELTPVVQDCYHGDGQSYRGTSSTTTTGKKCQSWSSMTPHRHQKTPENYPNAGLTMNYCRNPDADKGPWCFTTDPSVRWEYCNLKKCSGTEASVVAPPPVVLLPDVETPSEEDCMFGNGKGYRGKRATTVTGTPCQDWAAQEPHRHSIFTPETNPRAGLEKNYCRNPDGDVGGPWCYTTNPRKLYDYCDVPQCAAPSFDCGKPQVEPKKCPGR
Plasminogen, sequence (P00747 581-810 limits assumed): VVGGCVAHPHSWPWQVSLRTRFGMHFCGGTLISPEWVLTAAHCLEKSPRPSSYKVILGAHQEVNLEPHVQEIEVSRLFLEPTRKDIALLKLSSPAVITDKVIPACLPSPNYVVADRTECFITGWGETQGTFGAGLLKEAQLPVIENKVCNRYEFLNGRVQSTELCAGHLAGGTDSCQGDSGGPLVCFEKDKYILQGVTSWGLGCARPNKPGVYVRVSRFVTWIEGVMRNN
Serine protease 1, sequence (P07477 whole entry): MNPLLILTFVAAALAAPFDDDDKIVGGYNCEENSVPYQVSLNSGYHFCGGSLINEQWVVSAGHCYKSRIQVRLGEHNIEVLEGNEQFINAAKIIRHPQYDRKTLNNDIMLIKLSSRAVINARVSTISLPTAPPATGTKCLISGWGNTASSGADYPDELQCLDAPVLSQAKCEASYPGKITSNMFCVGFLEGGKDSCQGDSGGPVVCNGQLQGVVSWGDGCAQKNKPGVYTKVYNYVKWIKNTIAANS

For `O=c1oc(-c2ccccc2Br)nc2ccccc12`, the IC50 amounted to 32 µM in assay [1], 9.5 µM in assay [2] and 46 µM in [3].

On to `O=c1oc(-c2ccccc2I)nc2cc3ccccc3cc12`, for which the 50% inhibitory concentration (IC50) in [1] is > 62.5 µM; in assay [2], 0.7 µM; in assay [3], > 62.5 µM.

In the case of `O=c1oc(-c2ccccc2I)nc2ccc(Cl)cc12`, the concentration for half-maximal inhibition (IC50) came to 7.8 µM in assay [1], 3 µM in [2] and 27.3 µM in assay [3].

`O=c1oc(-c2ccccc2[N+](=O)[O-])nc2ccccc12`: the IC50 in assay [1] is 15 µM; in assay [2] it was 36.3 µM; in assay [3], > 62.5 µM.

For the compound `O=C(O)c1ccccc1-c1nc2ccccc2c(=O)o1`, the 50% inhibitory concentration (IC50) in [1] and in [3] was > 62.5 µM in each case. For the same compound, the inhibition in [4] came out at 25%.

For the compound `O=c1oc(-c2ccccc2C(F)(F)F)nc2ccccc12`, the IC50 was 35.4 µM in assay [1], 4.2 µM in [2] and > 62.5 µM in [3].

Take `N=C(N)c1ccc2cc(OC(=O)c3ccc(N=C(N)N)cc3)ccc2c1` [NAFAMOSTAT]: the half-inhibitory concentration (IC50) worked out at 290 nM against Prothrombin; 140 nM in assay [5]; 1 µM in assay [2]; 1040 nM in assay [6]; 12 µM in assay [3]; 0.65 µM at Kallikrein-1.

Take `O=c1oc(-c2ccccc2I)nc2cc(Cl)c(Cl)cc12`: the IC50 is > 62.5 µM in [1], 1.7 µM in [2] and > 62.5 µM in assay [3].

`O=c1oc(Cc2ccccc2I)nc2ccccc12`: the figures for the half-maximal inhibitory concentration (IC50) in assay [1], in assay [2] and in assay [3] were 26 µM, 6 µM and 40 µM, respectively.

For `O=c1oc(-c2ccccc2I)nc2ccccc12`, the half-inhibitory concentration (IC50) in assay [1] was 16.7 µM; at Prothrombin, 510 nM; in assay [7], 50 µM; against Plasminogen, 6.68 µM; in assay [5], 1250 nM; in assay [8], 1400 nM. Moreover, the values for the IC50 (in assay [6]; on Serine protease 1; against Kallikrein-1) were 1370 nM, 15.3 µM and 9.89 µM, respectively.

Turning to `O=c1oc(-c2ccccc2I)nc2cccc(Cl)c12`, the IC50 amounted to 13.5 µM in assay [1], 3 µM in assay [2] and 57 µM in [3].

Regarding `COc1ccc2nc(-c3ccccc3I)oc(=O)c2c1`, the IC50 in assay [1] was > 62.5 µM; in assay [2], 5 µM; in [3] it was > 62.5 µM.

`COc1ccc2c(=O)oc(-c3ccccc3I)nc2c1`: the IC50 in [1] and in assay [3] was > 62.5 µM in each case. The same compound gave an inhibition in assay [9] of 27%.

Consider `COc1cc2nc(-c3ccccc3I)oc(=O)c2cc1OC`, for which the IC50 in assay [1] and in assay [3] was > 62.5 µM each time. In [9], the inhibition was determined as 18%.

With `O=c1oc(-c2ccccc2I)nc2cc([N+](=O)[O-])ccc12`, the IC50 in [1] is 22 µM; in assay [3], > 62.5 µM. The compound further came in with an inhibition in assay [4] of 0%.

Broadly, the IC50 is the concentration needed to halve the response being measured. Low values mean greater potency in that assay, high ones weaker potency in that assay. A word on the inhibition: it is the share of the control response that was lost under treatment.
